Measurements: ChEMBL document CHEMBL4814005, “Pragmatic recruitment of memantine as the capping group for the design of HDAC inhibitors: A preliminary attempt to unravel the enigma of glioblastoma” (Eur J Med Chem, 2021)
The source made the active and inactive calls. The calls are words filed in the database; no cut-off is given here.

Tests used:
U-87 MG [1] = experiment: Antiproliferation activity against human U-87 MG cells assessed as growth inhibition measured after 1 hr by MTT assay; type: functional, cell-based, U-87MG ATCC
U-87 MG [2] = experiment: Antiproliferation activity against human U-87 MG cells assessed as growth inhibition at 10 uM after 3 days by MTT assay; type: functional, U-87MG ATCC; details: 72 h, time 3 day
U-87 MG [3] = experiment: Antiproliferation activity against TMZ resistant human U-87 MG R-50 cells assessed as growth inhibition at 3 uM by MTT assay; type: functional, cell-based; details: U-87MG ATCC
Glioblastoma cell line [4] = experiment: Antiproliferation activity against TMZ resistant human glioblastoma cell P1S assessed as growth inhibition at 3 uM by MTT assay; type: functional
A 172 [5] = experiment: Effect on cyclin B1 expression in human A 172 cells upto 10 uM after 24 hrs by Western blot analysis; type: functional, cell-based; details: dose microM <=10, time 24.0 hrs
A 172 [6] = experiment: Induction of cell cycle arrest in human A 172 cells assessed as increase in histone H3-K9/K14 acetylation upto 10 uM for 24 hrs by Western blot analysis; type: functional, cell-based; details: dose microM <=10, time 24.0 hrs
A 172 [7] = experiment: Induction of cell cycle arrest in human A 172 cells assessed as increase in histone H3-S10 dephosphorylation upto 10 uM for 24 hrs by Western blot analysis; type: functional, cell-based; details: dose microM <=10, time 24.0 hrs
A 172 [8] = experiment: Induction of apoptosis in human A 172 cells assessed as upregulation of activated caspase 3 protein at 3 uM after 24 hrs by western blot analysis; type: functional, cell-based
A 172 [9] = experiment: Cytotoxicity against human A 172 cells assessed as reduction in cell viability upto 72 hrs by MTT assay; type: functional, cell-based; details: dose microM <=30, time hrs <=72
A 172 [10] = experiment: Cytotoxicity against TMZ-resistant human A 172 cells assessed as reduction in cell viability upto 72 hrs by MTT assay; type: functional, cell-based; details: dose microM <=30, time hrs <=72
U-87 MG [11] = experiment: Cytotoxicity against human U-87 MG cells assessed as reduction in cell viability upto 72 hrs by MTT assay; type: functional, cell-based; details: U-87MG ATCC, dose microM <=30, time hrs <=72
U-87 MG [12] = experiment: Cytotoxicity against TMZ-resistant human U-87 MG cells assessed as reduction in cell viability upto 72 hrs by MTT assay; type: functional, cell-based; details: U-87MG ATCC, dose microM <=30, time hrs <=72
Glioblastoma cell line [13] = experiment: Cytotoxicity against human glioblastoma cell P3 cells assessed as reduction in cell viability upto 72 hrs by MTT assay; type: functional, cell-based; details: dose microM <=30, time hrs <=72
Glioblastoma cell line [14] = experiment: Cytotoxicity against TMZ-resistant human glioblastoma cell P3 cells assessed as reduction in cell viability upto 72 hrs by MTT assay; type: functional, cell-based; details: dose microM <=30, time hrs <=72
Glioblastoma cell line [15] = experiment: Cytotoxicity against human glioblastoma cell P1S cells assessed as reduction in cell viability upto 72 hrs by MTT assay; type: functional, cell-based; details: dose microM <=30, time hrs <=72
Histone deacetylase 1 = Histone deacetylase 1 (Homo sapiens, UniProt Q13547); experiment: Inhibition of human recombinant HDAC1 expressed in baculovirus infected insect cells using [RHKK(Ac)] fluorogenic substrate
Histone deacetylase 1, sequence (Q13547 whole entry): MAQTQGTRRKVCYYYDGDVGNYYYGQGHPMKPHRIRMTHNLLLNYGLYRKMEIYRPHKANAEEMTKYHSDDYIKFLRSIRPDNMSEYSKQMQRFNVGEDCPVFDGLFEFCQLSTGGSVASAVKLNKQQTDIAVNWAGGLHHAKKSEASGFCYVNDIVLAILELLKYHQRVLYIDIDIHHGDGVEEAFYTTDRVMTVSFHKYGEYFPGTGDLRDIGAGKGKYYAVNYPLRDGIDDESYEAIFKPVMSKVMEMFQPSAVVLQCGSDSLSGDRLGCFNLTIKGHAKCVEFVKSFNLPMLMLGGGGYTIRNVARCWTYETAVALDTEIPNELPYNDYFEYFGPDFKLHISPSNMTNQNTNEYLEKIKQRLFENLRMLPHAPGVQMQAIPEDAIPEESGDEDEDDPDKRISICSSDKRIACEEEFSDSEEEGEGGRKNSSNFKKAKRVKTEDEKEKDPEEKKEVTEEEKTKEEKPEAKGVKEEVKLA

Histone deacetylase 3 = Histone deacetylase 3 (Homo sapiens, UniProt O15379); experiment: Inhibition of human recombinant HDAC3 using [RHKK(Ac)] fluorogenic substrate
Histone deacetylase 3, sequence (O15379 whole entry): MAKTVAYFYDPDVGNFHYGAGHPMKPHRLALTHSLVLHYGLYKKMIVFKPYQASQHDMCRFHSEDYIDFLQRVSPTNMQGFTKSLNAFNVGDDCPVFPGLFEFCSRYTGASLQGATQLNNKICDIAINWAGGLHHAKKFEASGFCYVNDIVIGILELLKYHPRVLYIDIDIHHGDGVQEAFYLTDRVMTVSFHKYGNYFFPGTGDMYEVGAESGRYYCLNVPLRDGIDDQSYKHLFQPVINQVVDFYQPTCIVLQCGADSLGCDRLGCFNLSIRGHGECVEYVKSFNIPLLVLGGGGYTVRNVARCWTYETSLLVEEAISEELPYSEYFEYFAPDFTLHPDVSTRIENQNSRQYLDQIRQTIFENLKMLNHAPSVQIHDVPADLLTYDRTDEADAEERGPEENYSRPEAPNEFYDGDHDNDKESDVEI

Histone deacetylase 8 = target: T1, Histone deacetylase 8 (Homo sapiens, UniProt Q9BY41); experiment: Inhibition of human recombinant HDAC8 using [RHKK(Ac)] fluorogenic substrate
T1 sequence (Q9BY41 whole entry): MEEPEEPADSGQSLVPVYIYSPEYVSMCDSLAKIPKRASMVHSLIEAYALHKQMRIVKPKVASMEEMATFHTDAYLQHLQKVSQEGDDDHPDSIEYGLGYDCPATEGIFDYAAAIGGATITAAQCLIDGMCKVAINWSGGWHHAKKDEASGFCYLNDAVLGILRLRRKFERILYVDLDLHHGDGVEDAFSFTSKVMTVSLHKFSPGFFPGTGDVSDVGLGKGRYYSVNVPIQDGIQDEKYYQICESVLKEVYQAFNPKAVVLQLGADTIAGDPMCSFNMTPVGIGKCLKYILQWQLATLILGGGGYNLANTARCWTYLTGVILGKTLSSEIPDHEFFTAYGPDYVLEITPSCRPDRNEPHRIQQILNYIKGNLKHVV

[16] = Permeability of compound by PAMPA-BBB assay
U-87 MG [17] = experiment: Antitumor activity in TMZ-resistant human U-87 MG cells transplanted in BALB/C mouse assessed as increase in mouse survival at 10 mg/kg, ip measured for every 2 days measured for 40 days; type: functional, organism-based; details: U-87MG ATCC, time 40.0 day
A 172 [18] = experiment: Induction of cell cycle arrest in human A172 cells assessed as accumulation at G1/S phase measured by increase in cyclin E expression upto 10 uM after 24 hrs by Western blot analysis; type: functional, cell-based; details: dose microM <=10, time 24.0 hrs
A 172 [19] = experiment: Induction of cell cycle arrest in human A 172 cells assessed as sub-G1 population upto 10 uM after 2 days by flow cytometry/PI staining assay; type: functional, cell-based; details: dose microM <=10, time 2.0 day
U-87 MG [20] = experiment: Cytotoxicity against human U-87 MG cells assessed as reduction in cell viability upto 30 uM by MTT assay; type: functional, cell-based; details: U-87MG ATCC, dose microM <=30, time hrs <=72, TDE = time-dependent effect
U-87 MG [21] = experiment: Cytotoxicity against TMZ-resistant human U-87 MG cells assessed as reduction in cell viability upto 30 uM by MTT assay; type: functional, cell-based; details: U-87MG ATCC, dose microM <=30, time hrs <=72, TDE = time-dependent effect
Glioblastoma cell line [22] = experiment: Cytotoxicity against human glioblastoma cell P3 cells assessed as reduction in cell viability upto 30 uM by MTT assay; type: functional, cell-based; details: dose microM <=30, time hrs <=72, TDE = time-dependent effect
Glioblastoma cell line [23] = experiment: Cytotoxicity against TMZ-resistant human glioblastoma cell P3 cells assessed as reduction in cell viability upto 30 uM by MTT assay; type: functional, cell-based; details: dose microM <=30, time hrs <=72, TDE = time-dependent effect
Glioblastoma cell line [24] = experiment: Cytotoxicity against human glioblastoma cell P5 cells assessed as reduction in cell viability upto 30 uM by MTT assay; type: functional, cell-based; details: dose microM <=30, time hrs <=72, TDE = time-dependent effect
Glioblastoma cell line [25] = experiment: Cytotoxicity against TMZ-resistant human glioblastoma cell P5 cells assessed as reduction in cell viability upto 30 uM by MTT assay; type: functional, cell-based; details: dose microM <=30, time hrs <=72, TDE = time-dependent effect
Glioblastoma cell line [26] = experiment: Cytotoxicity against human glioblastoma cell P1S cells assessed as reduction in cell viability upto 30 uM by MTT assay; type: functional, cell-based; details: dose microM <=30, time hrs <=72, TDE = time-dependent effect

## CC12CC3CC(C)(C1)CC(NCc1ccc(NC(=O)CCCCCCC(=O)NO)cc1)(C3)C2
U-87 MG [1]
  IC50: 2950 nM
U-87 MG [2]
  inhibition at 10 µM: 90%
U-87 MG [3]
  Activity: inactive
Glioblastoma cell line [4]
  Activity: inactive
A 172 [5]
  Activity: inactive
A 172 [6]
  Activity: Active
A 172 [7]
  Activity: Active
A 172 [8]
  Activity: Active
A 172 [9]
  Activity: Dose-Dependent Effect
A 172 [10]
  Activity: Dose-Dependent Effect
U-87 MG [11]
  Activity: Dose-Dependent Effect
U-87 MG [12]
  Activity: Dose-Dependent Effect
Glioblastoma cell line [13]
  Activity: Dose-Dependent Effect
Glioblastoma cell line [14]
  Activity: Dose-Dependent Effect
Glioblastoma cell line [15]
  Activity: Dose-Dependent Effect
Histone deacetylase 1
  IC50: 347 nM
Histone deacetylase 3
  IC50: 806 nM
Histone deacetylase 8
  IC50: 638 nM
[16]
  Papp: 339 ×10⁻⁶ cm/s
U-87 MG [17]
  Activity: Active
A 172 [18]
  Activity: Active
A 172 [19]
  Activity: Active
U-87 MG [20]
  Activity: Tde
U-87 MG [21]
  Activity: Tde
Glioblastoma cell line [22]
  Activity: Tde
Glioblastoma cell line [23]
  Activity: Tde
Glioblastoma cell line [24]
  Activity: Tde
Glioblastoma cell line [25]
  Activity: Tde
Glioblastoma cell line [26]
  Activity: Tde
